Data from PubChem BioAssay (NCI).
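Cells were grown in 96-well plates and exposed to each compound for 48 hours at five concentrations; endpoints were interpolated linearly between bracketing concentrations, or set to the highest concentration if not reached. GI50 is the concentration that inhibits growth by half. TGI denotes the concentration required for complete inhibition of growth.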

Assays:
Experiment in all cases: NCI-60 cell line screen, 48 h
786-0 renal = test system: 786-0 renal
A498 renal = test system: A498 renal
A549 NSCLC = test system: A549 NSCLC
ACHN renal = test system: ACHN renal
BT-549 breast = test system: BT-549 breast
CAKI-1 renal = test system: CAKI-1 renal
CCRF-CEM leukemia = test system: CCRF-CEM leukemia
COLO 205 colon = test system: COLO 205 colon
DU-145 prostate = test system: DU-145 prostate
EKVX NSCLC = test system: EKVX NSCLC
HCC-2998 colon = test system: HCC-2998 colon
HCT-116 colon = test system: HCT-116 colon
HCT-15 colon = test system: HCT-15 colon
HL-60(TB) leukemia = test system: HL-60(TB) leukemia
HOP-62 NSCLC = test system: HOP-62 NSCLC
HOP-92 NSCLC = test system: HOP-92 NSCLC
HS 578T breast = test system: HS 578T breast
HT29 colon = test system: HT29 colon
IGROV1 ovarian = test system: IGROV1 ovarian
K-562 leukemia = test system: K-562 leukemia
KM12 colon = test system: KM12 colon
LOX IMVI melanoma = test system: LOX IMVI melanoma
M14 melanoma = test system: M14 melanoma
MALME-3M melanoma = test system: MALME-3M melanoma
MCF7 breast = test system: MCF7 breast
MDA-MB-231 breast = test system: MDA-MB-231 breast
MDA-MB-435 = test system: MDA-MB-435
MDA-MB-468 breast = test system: MDA-MB-468 breast
MOLT-4 leukemia = test system: MOLT-4 leukemia
NCI-H226 lung = test system: NCI-H226 lung
NCI-H23 lung = test system: NCI-H23 lung
NCI-H460 lung = test system: NCI-H460 lung
NCI-H522 lung = test system: NCI-H522 lung
NCI/ADR-RES ovarian = test system: NCI/ADR-RES ovarian
OVCAR-3 ovarian = test system: OVCAR-3 ovarian
OVCAR-4 ovarian = test system: OVCAR-4 ovarian
OVCAR-5 ovarian = test system: OVCAR-5 ovarian
OVCAR-8 ovarian = test system: OVCAR-8 ovarian
PC-3 prostate = test system: PC-3 prostate
RPMI-8226 leukemia = test system: RPMI-8226 leukemia
RXF 393 renal = test system: RXF 393 renal
SF-268 CNS = test system: SF-268 CNS
SF-295 CNS = test system: SF-295 CNS
SF-539 CNS = test system: SF-539 CNS
SK-MEL-2 melanoma = test system: SK-MEL-2 melanoma
SK-MEL-28 melanoma = test system: SK-MEL-28 melanoma
SK-MEL-5 melanoma = test system: SK-MEL-5 melanoma
SK-OV-3 ovarian = test system: SK-OV-3 ovarian
SN12C renal = test system: SN12C renal
SNB-19 CNS = test system: SNB-19 CNS
SNB-75 CNS = test system: SNB-75 CNS
SR leukemia = test system: SR leukemia
SW-620 colon = test system: SW-620 colon
T-47D breast = test system: T-47D breast
TK-10 renal = test system: TK-10 renal
U251 CNS = test system: U251 CNS
UACC-257 melanoma = test system: UACC-257 melanoma
UACC-62 melanoma = test system: UACC-62 melanoma
UO-31 renal = test system: UO-31 renal

## Cn1cc(-c2nnc(N)nc2-c2c[nH]c3ccccc23)c2cc(Br)cnc21
786-0 renal
  GI50: 9.51 µM
  TGI: 26.3 µM
A498 renal
  GI50: 12.3 µM
  TGI: 24.8 µM
A549 NSCLC
  GI50: 12.7 µM
  TGI: 46.9 µM
ACHN renal
  GI50: 5.41 µM
  TGI: 19.2 µM
BT-549 breast
  GI50: 5.94 µM
  TGI: 19.8 µM
CAKI-1 renal
  GI50: 10.7 µM
  TGI: 22.5 µM
CCRF-CEM leukemia
  GI50: 4.8 µM
  TGI: 33.6 µM
COLO 205 colon
  GI50: 7.03 µM
  TGI: 21.1 µM
DU-145 prostate
  GI50: 14.5 µM
  TGI: 28.8 µM
EKVX NSCLC
  GI50: 13.2 µM
  TGI: 28.5 µM
HCC-2998 colon
  GI50: 10.1 µM
  TGI: 23.7 µM
HCT-116 colon
  GI50: 8.67 µM
  TGI: 21.2 µM
HCT-15 colon
  GI50: 4.68 µM
  TGI: 32 µM
HL-60(TB) leukemia
  GI50: 4.63 µM
  TGI: 34.6 µM
HOP-62 NSCLC
  GI50: 9.73 µM
  TGI: 25.9 µM
HOP-92 NSCLC
  GI50: 4.44 µM
  TGI: 24.1 µM
HS 578T breast
  GI50: 4.92 µM
  TGI: 32 µM
HT29 colon
  GI50: 10 µM
  TGI: 27.3 µM
IGROV1 ovarian
  GI50: 2.6 µM
  TGI: 17.3 µM
K-562 leukemia
  GI50: 2.99 µM
  TGI: > 100 µM
KM12 colon
  GI50: 13.1 µM
  TGI: 27.6 µM
LOX IMVI melanoma
  GI50: 5.19 µM
  TGI: 26.5 µM
M14 melanoma
  GI50: 10.8 µM
  TGI: 23.9 µM
MALME-3M melanoma
  GI50: 8.27 µM
  TGI: 20.7 µM
MCF7 breast
  GI50: 1.5 µM
  TGI: 15 µM
MDA-MB-231 breast
  GI50: 7.8 µM
  TGI: 27.6 µM
MDA-MB-435
  GI50: 3.11 µM
  TGI: 10.4 µM
MDA-MB-468 breast
  GI50: 2.38 µM
  TGI: 12.8 µM
MOLT-4 leukemia
  GI50: 3.37 µM
  TGI: 27.3 µM
NCI-H226 lung
  GI50: 12.2 µM
  TGI: 36.7 µM
NCI-H23 lung
  GI50: 13.9 µM
  TGI: 36 µM
NCI-H460 lung
  GI50: 5.02 µM
  TGI: 21 µM
NCI-H522 lung
  GI50: 3.78 µM
  TGI: 21.6 µM
NCI/ADR-RES ovarian
  GI50: 10.7 µM
  TGI: 36.3 µM
OVCAR-3 ovarian
  GI50: 11.1 µM
  TGI: 23.4 µM
OVCAR-4 ovarian
  GI50: 7.09 µM
  TGI: 21.2 µM
OVCAR-5 ovarian
  GI50: 14.6 µM
  TGI: 29.8 µM
OVCAR-8 ovarian
  GI50: 12.5 µM
  TGI: 28.9 µM
PC-3 prostate
  GI50: 8.26 µM
  TGI: > 100 µM
RPMI-8226 leukemia
  GI50: 6.43 µM
  TGI: > 100 µM
RXF 393 renal
  GI50: 3.37 µM
  TGI: 20.3 µM
SF-268 CNS
  GI50: 10.7 µM
  TGI: 27.3 µM
SF-295 CNS
  GI50: 4.07 µM
  TGI: 17.5 µM
SF-539 CNS
  GI50: 10.7 µM
  TGI: 22.6 µM
SK-MEL-2 melanoma
  GI50: 12.3 µM
  TGI: 27.1 µM
SK-MEL-28 melanoma
  GI50: 10.9 µM
  TGI: 22.8 µM
SK-MEL-5 melanoma
  GI50: 6.84 µM
  TGI: 19.8 µM
SK-OV-3 ovarian
  GI50: 16.6 µM
  TGI: 35.6 µM
SN12C renal
  GI50: 10.2 µM
  TGI: 22.2 µM
SNB-19 CNS
  GI50: 12.2 µM
  TGI: 24.8 µM
SNB-75 CNS
  GI50: 2.7 µM
  TGI: 15.6 µM
SR leukemia
  GI50: 1.54 µM
  TGI: 71.2 µM
SW-620 colon
  GI50: 10 µM
  TGI: 23.3 µM
T-47D breast
  GI50: 4.12 µM
  TGI: 24.9 µM
TK-10 renal
  GI50: 12.8 µM
  TGI: 26.8 µM
U251 CNS
  GI50: 10.5 µM
  TGI: 23.2 µM
UACC-257 melanoma
  GI50: 13.4 µM
  TGI: 27.1 µM
UACC-62 melanoma
  GI50: 3.14 µM
  TGI: 16.8 µM
UO-31 renal
  TGI: 14.8 µM

## N/C(=N\c1nc2ccccc2s1)NC(=O)Nc1ccccc1F
786-0 renal
  GI50: 6.41 µM
  TGI: 22 µM
A498 renal
  GI50: 17.8 µM
  TGI: 34.1 µM
A549 NSCLC
  GI50: 0.955 µM
  TGI: 26.6 µM
ACHN renal
  GI50: 2.45 µM
  TGI: 20.9 µM
BT-549 breast
  GI50: 0.477 µM
  TGI: 26 µM
CAKI-1 renal
  GI50: 0.525 µM
  TGI: 15.9 µM
CCRF-CEM leukemia
  GI50: 0.694 µM
  TGI: > 100 µM
COLO 205 colon
  GI50: 1.27 µM
  TGI: 10.1 µM
DU-145 prostate
  GI50: 2.85 µM
  TGI: 15.6 µM
EKVX NSCLC
  GI50: 0.526 µM
  TGI: 67.2 µM
HCC-2998 colon
  GI50: 1.68 µM
  TGI: 23.1 µM
HCT-116 colon
  GI50: 0.462 µM
  TGI: 18.5 µM
HCT-15 colon
  GI50: 0.434 µM
  TGI: > 100 µM
HL-60(TB) leukemia
  GI50: 0.385 µM
  TGI: 13.6 µM
HOP-62 NSCLC
  GI50: 0.829 µM
  TGI: 15.6 µM
HOP-92 NSCLC
  GI50: 6.33 µM
  TGI: 24.5 µM
HS 578T breast
  GI50: 0.513 µM
  TGI: 19.5 µM
HT29 colon
  GI50: 0.369 µM
  TGI: 10.1 µM
IGROV1 ovarian
  GI50: 1 µM
  TGI: 25.2 µM
K-562 leukemia
  GI50: 0.307 µM
  TGI: > 100 µM
KM12 colon
  GI50: 0.475 µM
  TGI: 37.6 µM
LOX IMVI melanoma
  GI50: 0.62 µM
  TGI: 19.8 µM
M14 melanoma
  GI50: 0.4 µM
  TGI: 20.8 µM
MALME-3M melanoma
  GI50: 1.21 µM
  TGI: 22.5 µM
MCF7 breast
  GI50: 0.424 µM
  TGI: 20.5 µM
MDA-MB-231 breast
  GI50: 0.724 µM
  TGI: 21.2 µM
MDA-MB-435
  GI50: 0.231 µM
  TGI: 0.68 µM
MDA-MB-468 breast
  GI50: 0.817 µM
  TGI: 3.42 µM
MOLT-4 leukemia
  GI50: 0.57 µM
  TGI: 69.8 µM
NCI-H226 lung
  GI50: 3.29 µM
  TGI: 25 µM
NCI-H23 lung
  GI50: 2.23 µM
  TGI: 25 µM
NCI-H460 lung
  GI50: 0.406 µM
  TGI: 12.2 µM
NCI-H522 lung
  GI50: 0.412 µM
  TGI: 8.84 µM
NCI/ADR-RES ovarian
  GI50: 0.364 µM
  TGI: 3.11 µM
OVCAR-3 ovarian
  GI50: 0.369 µM
  TGI: 4.74 µM
OVCAR-4 ovarian
  GI50: 10.9 µM
  TGI: 39 µM
OVCAR-5 ovarian
  GI50: 3.28 µM
  TGI: 31.9 µM
OVCAR-8 ovarian
  GI50: 1.25 µM
  TGI: 16.6 µM
PC-3 prostate
  GI50: 2.07 µM
  TGI: 21.2 µM
RPMI-8226 leukemia
  GI50: 1.26 µM
  TGI: 17.3 µM
RXF 393 renal
  GI50: 0.645 µM
  TGI: 5.25 µM
SF-268 CNS
  GI50: 3.54 µM
  TGI: > 100 µM
SF-295 CNS
  GI50: 0.401 µM
  TGI: 15.5 µM
SF-539 CNS
  GI50: 0.529 µM
  TGI: 4.72 µM
SK-MEL-2 melanoma
  GI50: 0.321 µM
  TGI: 10.3 µM
SK-MEL-28 melanoma
  GI50: 10.2 µM
  TGI: 26.4 µM
SK-MEL-5 melanoma
  GI50: 0.614 µM
  TGI: 11.1 µM
SK-OV-3 ovarian
  GI50: 6.48 µM
  TGI: 23.8 µM
SN12C renal
  GI50: 0.842 µM
  TGI: 25.8 µM
SNB-19 CNS
  GI50: 1.73 µM
  TGI: 24 µM
SNB-75 CNS
  GI50: 0.201 µM
  TGI: 7.22 µM
SW-620 colon
  GI50: 0.412 µM
  TGI: 21.9 µM
T-47D breast
  GI50: 2.85 µM
  TGI: > 100 µM
TK-10 renal
  GI50: 12.1 µM
  TGI: 30 µM
U251 CNS
  GI50: 0.468 µM
  TGI: 14.4 µM
UACC-257 melanoma
  GI50: 14.4 µM
  TGI: 75.4 µM
UACC-62 melanoma
  GI50: 0.387 µM
  TGI: 18.9 µM
UO-31 renal
  GI50: 1.7 µM
  TGI: 21.8 µM
